Measured values from the supplement of paper PMC10307832.

Key:
Test in all cases: relative viability (nuclei count vs DMSO), 5 days (fraction); higher = more cells survive
[1] = compound: C(C(=O)C(=O)O)Br [Bromopyruvate] + C[C@@H](Oc1cc(-c2cnn(C3CCNCC3)c2)cnc1N)c1c(Cl)ccc(F)c1Cl [Crizotinib] (partner 1 µM)
In short: (§1)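 Medians of duplicate plates are given as relative viability. That measure is the nuclei count in treated wells divided by the count in vehicle wells. Counts were taken on 4× images of lung cancer cell lines in 1536-well plates, 5 days after pin-tool dosing the day after seeding with one drug alone or a fixed anchor-drug dose plus five library-drug doses (not always all listed) in √10 steps.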

[2] = compound: C(C(=O)C(=O)O)Br [Bromopyruvate] + CC(=O)c1c(C)c2cnc(Nc3ccc(N4CCNCC4)cn3)nc2n(C2CCCC2)c1=O [Palbociclib] (partner 0.5 µM)
In short: as §1

[3] = compound: CC(O)(CS(=O)(=O)c1ccc(F)cc1)C(=O)Nc1ccc(C#N)c(C(F)(F)F)c1 [Bicalutamide] + O=C(CCCCCCC(=O)Nc1ccccc1)NO [Vorinostat] (partner 1 µM)
In short: as §1

[4] = compound: CC(O)(CS(=O)(=O)c1ccc(F)cc1)C(=O)Nc1ccc(C#N)c(C(F)(F)F)c1 [Bicalutamide] + CC(C)C[C@H](NC(=O)[C@H](Cc1ccccc1)NC(=O)c1cnccn1)B(O)O [Bortezomib] (partner 0.002 µM)
In short: as §1

Cell Line | relative viability ([1]; first compound 1 µM) | relative viability ([1]; first compound 3.162 µM) | relative viability ([1]; first compound 10 µM) | relative viability ([1]; first compound 31.62 µM) | relative viability ([1]; first compound 100 µM) | relative viability ([2]; first compound 1 µM) | relative viability ([2]; first compound 3.162 µM) | relative viability ([2]; first compound 10 µM) | relative viability ([2]; first compound 31.62 µM) | relative viability ([2]; first compound 100 µM) | relative viability ([3]; first compound 0.08 µM) | relative viability ([3]; first compound 0.253 µM) | relative viability ([3]; first compound 0.8 µM) | relative viability ([3]; first compound 2.53 µM) | relative viability ([4]; first compound 0.08 µM) | relative viability ([4]; first compound 0.253 µM) | relative viability ([4]; first compound 0.8 µM) | relative viability ([4]; first compound 2.53 µM)
HCC-44 | 0.787 | 0.724 | 0.735 | 0.862 | 0.884 | 0.985 | 0.912 | 0.944 | 1.01 | 0.991 | 1.12 | 1.21 | 1.1 | 1.12 | 0.936 | 0.953 | 0.961 | 0.989
HCC-78 | 0.368 | 0.339 | 0.37 | 0.349 | 0.347 | 0.446 | 0.471 | 0.455 | 0.514 | 0.407 | 0.489 | 0.436 | 0.462 | 0.447 | 0.498 | 0.504 | 0.479 | 0.556
HCC-366 | 0.569 | 0.54 | 0.947 | 0.548 | 0.474 | 0.405 | 0.361 | 0.43 | 0.395 | 0.38 | 0.368 | 0.331 | 0.52 | 0.134 | 1.04 | 1.02 | 1.43 | 1.04
HCC-827 | 0.939 | 0.919 | 0.931 | 0.999 | 0.964 | 0.434 | 0.542 | 0.472 | 0.541 | 0.517 | 0.921 | 0.639 | 1.15 | 0.815 | 1.12 | 0.964 | 1.04 | 0.98
IA-LM | 0.642 | 0.796 | 0.634 | 0.789 | 0.522 | – | – | – | – | – | 0.985 | 0.803 | 1.16 | 0.892 | 0.819 | 0.86 | 0.966 | 0.837
LK-2 | 0.292 | 0.238 | 0.207 | 0.223 | 0.257 | 0.688 | 0.858 | 0.797 | 0.637 | 0.678 | 0.346 | 0.339 | 0.354 | 0.311 | – | – | – | –
NCI-H358 | 0.681 | 0.702 | 0.521 | 0.604 | 0.64 | 0.113 | 0.132 | 0.168 | 0.127 | 0.142 | 0.804 | 0.604 | 0.662 | 0.544 | – | – | – | –
NCI-H522 | – | – | – | – | – | 1.02 | 1.03 | 1 | 1.02 | 1.1 | 1.01 | 0.862 | 0.99 | 0.77 | – | – | – | –
NCI-H596 | 0.98 | 1 | 1.07 | 0.952 | 1.17 | – | – | – | – | – | 0.679 | 0.571 | 0.66 | 0.648 | 1.19 | 1.11 | 1.01 | 1.04
NCI-H1299 | 0.933 | 0.994 | 0.995 | 0.945 | 0.957 | – | – | – | – | – | – | – | – | – | 0.974 | 1.05 | 0.969 | 1.04
NCI-H1395 | – | – | – | – | – | 0.551 | 0.531 | 0.724 | 0.614 | 0.662 | 0.882 | 0.666 | 0.792 | 0.624 | – | – | – | –
NCI-H1563 | 0.883 | 0.979 | 0.956 | 0.828 | 0.998 | – | – | – | – | – | – | – | – | – | 0.973 | 0.775 | 0.885 | 0.767
NCI-H1648 | – | – | – | – | – | 0.211 | 0.242 | 0.283 | 0.298 | 0.328 | – | – | 0.698 | 0.425 | – | – | – | –
NCI-H1703 | 0.736 | 0.946 | 0.589 | 0.862 | 0.75 | – | – | – | – | – | – | – | – | – | 0.374 | 0.427 | 0.317 | 0.204
NCI-H1792 | 1.11 | 1.03 | 1.09 | 0.878 | 0.984 | 0.673 | 0.698 | 0.684 | – | 0.656 | – | – | – | – | 0.983 | 0.957 | 0.983 | 1.07
NCI-H1793 | – | – | – | – | – | 0.291 | 0.354 | 0.325 | 0.365 | 0.341 | 0.869 | – | 0.996 | 0.566 | – | – | – | –
NCI-H1944 | 1.08 | 1.09 | 1.12 | 1.07 | 1.14 | 0.32 | 0.333 | 0.335 | 0.319 | 0.311 | 0.54 | 0.516 | 0.593 | 0.438 | – | – | – | –
NCI-H2170 | 1.33 | 1.24 | 1.2 | 1.29 | 1.15 | 0.365 | 0.421 | 0.389 | 0.396 | 0.411 | 0.794 | 0.741 | 0.867 | 0.803 | – | – | – | –
NCI-H2342 | – | – | – | – | – | 0.487 | 0.55 | 0.476 | 0.485 | 0.458 | 0.759 | 0.767 | 0.853 | 0.801 | – | – | – | –
SK-MES-1 | 0.974 | 0.952 | 1.02 | 0.997 | 1.05 | 0.352 | 0.344 | 0.29 | 0.32 | 0.319 | 1.21 | 1.07 | 1.19 | 1.03 | – | – | – | –
SW 900 | – | – | – | – | – | 0.524 | 0.486 | 0.536 | 0.589 | 0.5 | 0.601 | 0.281 | 0.394 | 0.398 | – | – | – | –
